Source: patent publication US12390470B2, “1-methylxanthine-based bioactive composition and method of use thereof” (Ingenious Ingredients, LP, priority 2021, dated 2025)
Like-named read-outs stand apart in the source and are kept apart here.

Key:
[1] = system: participants; test: Resting heart rate, crossover vs caffeine; assay type: in vivo, human
From the text: (§1) All supplements were orally ingested with 8 fluid ounces of cold tap water.

[2] = system: participants; test: Systolic blood pressure, crossover vs caffeine; assay type: in vivo, human
From the text: as §1

[3] = system: participants; test: Respiratory quotient, placebo-controlled crossover; assay type: in vivo, human
Method: All supplements were orally ingested with 8 fluid ounces of cold tap water. The order of administration for all interventions was randomized using a random allocation software to ensure randomization and to avoid order effects. After ingestion, participants completed all assessments in an identical fashion 30, 60, 90, 120, and 180 minutes after ingestion of their assigned supplement. All study visits took place between 0600-1000 hours. At least 72 hours of rest will take place between each condition.
The lower the RQ, the more fat that is being oxidized for body energy needs. The closer to 1.0 the more carbohydrate is being burned for energy needs. If numbers are lower more fat is being oxidized.

[4] = system: participants; test: Diastolic blood pressure, crossover vs caffeine; assay type: in vivo, human
Method: All supplements were orally ingested with 8 fluid ounces of cold tap water. Resting Heart Rate, Systolic and Diastolic Blood Pressure was measured at baseline, 30, 60, 90, 120 and 180 minutes after ingestion.

[5] = system: participants; test: Anxiety by Visual Analog Scale; assay type: in vivo, human
Method: All supplements were orally ingested with 8 fluid ounces of cold tap water. Anxiety was measured by Visual Analog Scale (VAS) at baseline, 30, 60, 90, 120 and 180 minutes after ingestion.

[6] = system: kidneys of Wistar rats; settings: cited from earlier work
[7] = Person one, time 0, 200 mg oral
[8] = Person two, time 0, 200 mg oral

SMILES: Cn1c(=O)c2c(ncn2C)n(C)c1=O [caffeine, reference compound]
- Resting Heart Rate Mean Δ from 0 ([1]; Average, listed as CA): 10%
- Resting Heart Rate Mean Δ from 0 ([1]; Person one): +6.2 bpm
- Resting Heart Rate ([1]; Person one, 30 min): 64 bpm
- Resting Heart Rate ([1]; Person one, 60 min): 56 bpm
- Resting Heart Rate ([1]; Person one, 90 min): 51 bpm
- Resting Heart Rate ([1]; Person one, 120 min): 61 bpm
- Resting Heart Rate ([1]; Person one, 180 min): 44 bpm
- Resting Heart Rate [1, 7]: 49 bpm
- Resting Heart Rate Mean Δ from 0 ([1]; Person two): +4.6 bpm
- Resting Heart Rate ([1]; Person two, 30 min): 65 bpm
- Resting Heart Rate ([1]; Person two, 60 min): 62 bpm
- Resting Heart Rate ([1]; Person two, 90 min): 62 bpm
- Resting Heart Rate ([1]; Person two, 120 min): 64 bpm
- Resting Heart Rate ([1]; Person two, 180 min): 69 bpm
- Resting Heart Rate [1, 8]: 59 bpm
- Systolic Blood Pressure MEAN (30-180) ([2]; Person one): 130.0 mm Hg
- Systolic Blood Pressure MEAN (30-180) ([2]; Person two): 119.6 mm Hg
- Respiratory Quotient MEAN (30-180) ([3]; Average): 0.701
- Respiratory Quotient MEAN (30-180) ([3]; Person one): 0.704
- Respiratory Quotient ([3]; Person one, 30 min after ingestion): 0.70
- Respiratory Quotient ([3]; Person one, 60 min): 0.65
- Respiratory Quotient ([3]; Person one, 90 min): 0.70
- Respiratory Quotient ([3]; Person one, 120 min): 0.74
- Respiratory Quotient ([3]; Person one, 180 min): 0.73
- Respiratory Quotient [3, 7]: 0.68
- Respiratory Quotient MEAN (30-180) ([3]; Person two): 0.698
- Respiratory Quotient ([3]; Person two, 30 min): 0.70
- Respiratory Quotient ([3]; Person two, 60 min): 0.71
- Respiratory Quotient ([3]; Person two, 90 min): 0.71
- Respiratory Quotient ([3]; Person two, 120 min): 0.71
- Respiratory Quotient ([3]; Person two, 180 min): 0.66
- Respiratory Quotient [3, 8]: 0.76
- Diastolic Blood Pressure MEAN (30-180) ([4]; Average): 80.2 mm Hg
- Diastolic Blood Pressure Mean Δ from 0 ([4]; Average, listed as CA): 20.3%
- Diastolic Blood Pressure MEAN (30-180) ([4]; Person one): 78.6 mm Hg
- Diastolic Blood Pressure Mean Δ from 0 ([4]; Person one): +18.6 mm Hg
- Diastolic Blood Pressure ([4]; Person one, 30 min): 77 mm Hg
- Diastolic Blood Pressure ([4]; Person one, 60 min): 80 mm Hg
- Diastolic Blood Pressure ([4]; Person one, 90 min): 83 mm Hg
- Diastolic Blood Pressure ([4]; Person one, 120 min): 77 mm Hg
- Diastolic Blood Pressure ([4]; Person one, 180 min): 76 mm Hg
- Diastolic Blood Pressure [4, 7]: 60 mm Hg
- Diastolic Blood Pressure MEAN (30-180) ([4]; Person two): 81.8 mm Hg
- Diastolic Blood Pressure Mean Δ from 0 ([4]; Person two): +8.8 mm Hg
- Diastolic Blood Pressure ([4]; Person two, 30 min): 77 mm Hg
- Diastolic Blood Pressure ([4]; Person two, 60 min): 96 mm Hg
- Diastolic Blood Pressure ([4]; Person two, 90 min): 84 mm Hg
- Diastolic Blood Pressure ([4]; Person two, 120 min): 75 mm Hg
- Diastolic Blood Pressure ([4]; Person two, 180 min): 77 mm Hg
- Diastolic Blood Pressure [4, 8]: 73 mm Hg
- Anxiety (VAS) MEAN (30-180) ([5]; Average): 74.4
- Anxiety (VAS) Mean Δ from 0 ([5]; Average, listed as CA): 65%
- Anxiety (VAS) MEAN (30-180) ([5]; Person one): 74.6
- Anxiety (VAS) Mean Δ from 0 ([5]; Person one): +44.6
- Anxiety (Visual Analog Scale) ([5]; Person one, 30 min): 61
- Anxiety (Visual Analog Scale) ([5]; Person one, 60 min): 80
- Anxiety (Visual Analog Scale) ([5]; Person one, 90 min): 80
- Anxiety (Visual Analog Scale) ([5]; Person one, 120 min): 71
- Anxiety (Visual Analog Scale) ([5]; Person one, 180 min): 81
- Anxiety (Visual Analog Scale) [5, 7]: 30
- Anxiety (VAS) MEAN (30-180) ([5]; Person two): 74.2
- Anxiety (VAS) Mean Δ from 0 ([5]; Person two): +14.2
- Anxiety (Visual Analog Scale) ([5]; Person two, 30 min): 70
- Anxiety (Visual Analog Scale) ([5]; Person two, 60 min): 75
- Anxiety (Visual Analog Scale) ([5]; Person two, 90 min): 76
- Anxiety (Visual Analog Scale) ([5]; Person two, 120 min): 75
- Anxiety (Visual Analog Scale) ([5]; Person two, 180 min): 75
- Anxiety (Visual Analog Scale) [5, 8]: 60

SMILES: Cn1c(=O)[nH]c(=O)c2[nH]cnc21 [3-methylxanthine]
- serum urea ([6]; 100 mg kg^−1, after 16 days): Elevated values of serum urea were found
- Tubular necrosis ([6]; 100 mg kg^−1 per day oral, after 16 days): Tubular necrosis was noticed
- serum urea ([6]; 200 mg kg^−1, after 1 day): Elevated values of serum urea were found
- serum creatinine ([6]; 200 mg kg^−1, after 8 days): Elevated values of serum creatinine were detected
- Tubular necrosis ([6]; 200 mg kg^−1 per day oral, after 8 days): Tubular necrosis was noticed
- overall renal outcome ([6]; 50-200 mg per kg per day, 1-16 days): dose- and time-related renal failure
